Experimental findings from patent US8871767B2, “2-arylimidazo[1,2-B]pyridazine, 2-phenylimidazo[1,2-A]pyridine, and 2-phenylimidazo[1,2-A]pyrazine derivatives” (Hengrui (USA) Ltd., priority 2010, dated 2014) are described below.

For orientation: IC50 means the point on the concentration scale where inhibition reaches its midpoint.

Where only a bound is given, the exact number is not on record here.

The first experiment deals with Hedgehog pathway activation (GLi-luciferase reporter) in Shh Light II reporter cells. The experiment in a line: Hedgehog pathway activation on Shh Light II reporter cells measured by luciferase activity. Type of experiment: cell-based. Particulars: Mus musculus, Shh Light II, hShh activation, read-out: Shh (IC50, inhibition of Hedgehog pathway activation). Here is the method: Hedgehog conditioned media was obtained by transfecting 293H cells with the full length gene encoding human Sonic Hedgehog (hShh) inserted into the pCMV6 expression vector, which contains a neomycin selectable marker and expresses the protein of interest with a C-terminal FLAG affinity tag. After selection in G418 containing media, conditioned media from Hedgehog expressing clones were tested for the ability to activate the hedgehog-responsive GLi-luciferase reporter in the Shh Light II cell line obtained by license from John Hopkins University (Taipale J, et al. Effects of oncogenic mutations in Smoothened and Patched can be reversed by cyclopamine. Nature 406: 1005-1009, 2000).
A test compound library was screened against hShh and 500 nM SAG (a direct agonist of the Smoothened receptor) activated 10T1/2/Smo#3 cells and Shh Light II reporter cells for the ability to block Hedgehog pathway activation. Concurrently, cell viability was measured by utilizing Celltiter-Blue® (Promega, Madison Wis.) viability assay. Active compounds were defined as those that inhibited Hedgehog signaling by greater than 50% with no concurrent loss in cell viability.
Their inhibitory activity against Hedgehog pathway activation on 10T1/2/Smo#3 cells as measured by ALP activity and Shh Light II reporter cells as measured by luciferase activity is shown in Table 1 below. In Table 1, +++ stands for an IC50 value that is less than 0.3 μM, ++ between 0.3 and 3 μM, + between 3 and 30 μM.
Additional data for compounds of the invention is shown below in Table 2. Their inhibitory activities against Hedgehog pathway activation are shown as IC50 values in μM on 10T1/2/Smo#3 cells as measured by ALP activity, or on Shh Light II reporter cells as measured by luciferase activity (hShh activation).
For `Cc1ccc(-c2cn3nc(-c4cccnc4C(F)(F)F)ccc3n2)cc1C(N)=O` [Example 482, 2-methyl-5-(6-(2-(trifluoromethyl)pyridin-3-yl)imidazo[1,2-b]pyridazin-2-yl)benzamide], the IC50 was over 10000 nM.

Consider `Cc1ccc(-c2nc3ccc(-c4ccc(C(F)(F)F)nc4)nn3c2C)cc1NC(=O)C(C)(C)C` [Example 339, N-(2-methyl-5-(3-methyl-6-(6-(trifluoromethyl)pyridin-3-yl)imidazo[1,2-b]pyridazin-2-yl)phenyl)pivalamide], for which the IC50 is 277 nM.

As to `COc1cncc(-c2ccc3nc(-c4ccc(C)c(NC(=O)C(C)(C)C)c4)cn3n2)c1` [Example 403, N-(5-(6-(5-methoxypyridin-3-yl)imidazo[1,2-b]pyridazin-2-yl)-2-methylphenyl)pivalamide], the IC50 is 474 nM.

`Cc1ccc(-c2cn3nc(N4CCC(F)(F)CC4)ccc3n2)cc1NC(=O)C(C)(C)C` [Example 282, N-(5-(6-(4,4-difluoropiperidin-1-yl)imidazo[1,2-b]pyridazin-2-yl)-2-methylphenyl)pivalamide]: the IC50 was determined as 1450 nM.

For `Cc1ccc(-c2cn3nc(-c4cccc(C(F)(F)F)n4)ccc3n2)cc1NC(=O)C(C)(C)C` [Example 458, N-(2-methyl-5-(6-(6-(trifluoromethyl)pyridin-2-yl)imidazo[1,2-b]pyridazin-2-yl)phenyl)pivalamide], the IC50 is 421 nM.

Take `Cc1ccc(-c2cn3nc(NCc4ccc(CO)cc4)ccc3n2)cc1NC(=O)C(C)(C)C` [compound 593]: the IC50 stood at 2040 nM.

In the case of `Cc1ccc(-c2cn3nc(-c4cccc(C(=O)NOC5CCCCO5)c4)ccc3n2)cc1NC(=O)C(C)(C)C` (centres unmarked) [compound 585], the IC50 was determined as 925 nM.

With `Cc1ccc(-c2cn3nc(N4CCC(NCCCCCCC(=O)NO)C4)ccc3n2)cc1NC(=O)C(C)(C)C` (centres unmarked) [Example 419, N-hydroxy-7-(1-(2-(4-methyl-3-pivalamidophenyl)imidazo[1,2-b]pyridazin-6-yl)pyrrolidin-3-ylamino)heptanamide], the IC50 was determined as 968 nM.

Take `Cc1ccc(-c2cn3nc(-c4c[nH]nc4C)ccc3n2)cc1NC(=O)C(C)(C)C` [compound 500]: the IC50 was 450 nM.

Turning to `Cc1ccc(-c2cn3nc(-c4cccc(C(=O)NO)c4)ccc3n2)cc1NC(=O)C(C)(C)C` [compound 589], the IC50 came out at 498 nM.

As for `CC(C)(C)C(=O)Nc1cc(-c2cn3nc(NC4CCC(O)CC4)ccc3n2)ccc1C(F)(F)F` (centres unmarked) [Example 314, N-(5-(6-(4-hydroxycyclohexylamino)imidazo[1,2-b]pyridazin-2-yl)-2-(trifluoromethyl)phenyl)pivalamide], the IC50 came to 346 nM.

`COC(=O)CCCCCCN(C(=O)C(C)(C)C)c1cc(-c2cn3nc(-c4cccnc4C(F)(F)F)ccc3n2)ccc1C` [compound 516, methyl 7-(N-(2-methyl-5-(6-(2-(trifluoromethyl)pyridin-3-yl)imidazo[1,2-b]pyridazin-2-yl)phenyl)pivalamido)heptanoate]: the IC50 amounted to 1710 nM.

Regarding `Cc1ccc(-c2cn3nc(-c4c(C)n[nH]c4C)ccc3n2)cc1NC(=O)C(C)(C)C` [compound 501], the IC50 was determined as 1000 nM.

Consider `CC(C)(C)C(=O)Nc1cc(-c2cn3nc(N4CCC(N)C4)ccc3n2)ccc1C(F)(F)F` (centres unmarked) [Example 318, N-(5-(6-(3-aminopyrrolidin-1-yl)imidazo[1,2-b]pyridazin-2-yl)-2-(trifluoromethyl)phenyl)pivalamide], for which the IC50 worked out at 203 nM.

For the molecule `COc1ccc2nc(-c3ccc(C)c(NC(=O)c4cccc(C=CC(=O)NO)c4)c3)cn2n1` [compound 616], the IC50 was over 10000 nM.

For the molecule `CC(C)(C)C(=O)Nc1cc(-c2cn3nc(N4CCCC4CO)ccc3n2)ccc1C(F)(F)F` (centres unmarked) [Example 348, N-(5-(6-(2-(hydroxymethyl)pyrrolidin-1-yl)imidazo[1,2-b]pyridazin-2-yl)-2-(trifluoromethyl)phenyl)pivalamide], the IC50 worked out at 339 nM.

In the case of `Cc1ccc(-c2cn3nc(-c4ccc(N)cc4)ccc3n2)cc1NC(=O)C(C)(C)C` [compound 550], the 50% inhibitory concentration (IC50) came to 418 nM.

As to `COC(=O)c1ccc(-c2ccc3nc(-c4ccc(C)c(NC(=O)C(C)(C)C)c4)cn3n2)cc1` [compound 582], the IC50 was determined as 1140 nM.

`CCc1ccc(-c2cn3nc(-c4ccc(C(F)(F)F)nc4)ccc3n2)cc1NC(=O)C(C)(C)C` [Example 338, N-(2-ethyl-5-(6-(6-(trifluoromethyl)pyridin-3-yl)imidazo[1,2-b]pyridazin-2-yl)phenyl)pivalamide]: the IC50 is 398 nM.

With `CC(=O)Nc1ncc(-c2ccc3nc(-c4ccc(C)c(NC(=O)C(C)(C)C)c4)cn3n2)s1` [Example 447, N-(5-(6-(2-acetamidothiazol-5-yl)imidazo[1,2-b]pyridazin-2-yl)-2-methylphenyl)pivalamide], the IC50 came to 293 nM.

Take `COc1ccc(F)c(-c2ccc3nc(-c4ccc(C(F)(F)F)c(NC(=O)C(C)(C)C)c4)cn3n2)c1` [Example 228, N-(5-(6-(2-fluoro-5-methoxyphenyl)imidazo[1,2-b]pyridazin-2-yl)-2-(trifluoromethyl)phenyl)pivalamide]: the 50% inhibitory concentration (IC50) worked out at 325 nM.

For the molecule `Cc1ccc(-c2cn3nc(-c4ccc(C#N)cc4C)ccc3n2)cc1NC(=O)C(C)(C)C` [compound 574], the IC50 is 364 nM.

Take `Cc1ccc(-c2cn3nc(-c4cccnc4C(F)(F)F)ccc3n2)cc1NC(=O)c1cccc(C=CC(=O)NO)c1` [compound 625, 3-(3-(hydroxyamino)-3-oxoprop-1-en-1-yl)-N-(2-methyl-5-(6-(2-(trifluoromethyl)pyridin-3-yl)imidazo[1,2-b]pyridazin-2-yl)phenyl)benzamide]: the IC50 was found to be 813 nM.

For `CCOC(=O)C=Cc1cccc(C(=O)Nc2cc(-c3cn4nc(Cl)ccc4n3)ccc2C)c1` [compound 609], the IC50 is over 10000 nM.

As to `Cc1ccc(-c2cn3nc(-c4cc(C(N)=NO)ccc4C)ccc3n2)cc1NC(=O)C(C)(C)C` [compound 577], the 50% inhibitory concentration (IC50) turned out to be 63 nM.

`Cc1ccc(-c2cn3nc(N)ccc3n2)cc1NC(=O)C(C)(C)C` [compound 591, N-(5-(6-aminoimidazo[1,2-b]pyridazin-2-yl)-2-methylphenyl)pivalamide]: the concentration for half-maximal inhibition (IC50) worked out at 578 nM.

Regarding `COc1cccc(-c2ccc3nc(-c4ccc(C(F)(F)F)c(NC(=O)C(C)(C)C)c4)cn3n2)c1` [Example 229, N-(5-(6-(3-methoxyphenyl)imidazo[1,2-b]pyridazin-2-yl)-2-(trifluoromethyl)phenyl)pivalamide], the IC50 stood at 313 nM.

As for `CC(C)(C)C(=O)Nc1cc(-c2cn3nc(N4CCNCC4)ccc3n2)ccc1C(F)(F)F` [Example 328, N-(5-(6-(piperazin-1-yl)imidazo[1,2-b]pyridazin-2-yl)-2-(trifluoromethyl)phenyl)pivalamide], the IC50 worked out at 3540 nM.

In the case of `COC(=O)c1csc(-c2cc(-c3cn4nc(-c5cccnc5C(F)(F)F)ccc4n3)ccc2C)n1` [compound 506], the IC50 was determined as 1340 nM.

For the molecule `Cc1ccc(-c2cn3nc(-c4ccc(OCC(=O)NO)cc4C(F)(F)F)ccc3n2)cc1NC(=O)C(C)(C)C` [Example 455, N-(5-(6-(4-(2-(hydroxyamino)-2-oxoethoxy)-2-(trifluoromethyl)phenyl)imidazo[1,2-b]pyridazin-2-yl)-2-methylphenyl)pivalamide], the IC50 came out at 3460 nM.

Turning to `Cc1ccc(-c2cn3nc(-c4ccc(OCCCCCC(=O)NO)cc4C(F)(F)F)ccc3n2)cc1NC(=O)C(C)(C)C` [Example 416, N-hydroxy-6-(4-(2-(4-methyl-3-pivalamidophenyl)imidazo[1,2-b]pyridazin-6-yl)-3-(trifluoromethyl)phenoxy)hexanamide], the IC50 worked out at 253 nM.

Turning to `Cc1ccc(-c2cn3nc(-c4cccnc4C(F)(F)F)ccc3n2)cc1NC(=O)CCCCC(=O)NO` [Example 440, N^1-hydroxy-N^6-(2-methyl-5-(6-(2-(trifluoromethyl)pyridin-3-yl)imidazo[1,2-b]pyridazin-2-yl)phenyl)adipamide], the IC50 was determined as 4060 nM.

For `CCOC(=O)COc1ccc(-c2ccc3nc(-c4ccc(C)c(NC(=O)C(C)(C)C)c4)cn3n2)c(C(F)(F)F)n1` [Example 476, ethyl 2-(5-(2-(4-methyl-3-pivalamidophenyl)imidazo[1,2-b]pyridazin-6-yl)-6-(trifluoromethyl)pyridin-2-yloxy)acetate], the IC50 stood at 427 nM.

On to `Cc1ccc(-c2cn3nc(-c4ccc(Cl)nc4)ccc3n2)cc1NC(=O)C(C)(C)C` [Example 408, N-(5-(6-(6-chloropyridin-3-yl)imidazo[1,2-b]pyridazin-2-yl)-2-methylphenyl)pivalamide], for which the IC50 came out at 340 nM.

The experiment is the same for the next values; noted with them: hShh activation, read-out: Shh (IC50, inhibition of Hedgehog pathway activation).
Regarding `CC(C)(C)C(=O)Nc1cc(-c2cn3nc(N4CCC(N)C4)ccc3n2)ccc1C(F)(F)F` (centres unmarked) [Example 319, N-(5-(6-(3-aminopyrrolidin-1-yl)imidazo[1,2-b]pyridazin-2-yl)-2-(trifluoromethyl)phenyl)pivalamide], the half-maximal inhibitory concentration (IC50) came out at 347 nM.
